Test results reported in patent US7589123B2, “Chemical compounds” (Phytopharm PLC, priority 2006, dated 2009).

Assays:
[1] = system: α-smooth muscle actin (α-SMA) mRNA; assay: Anti-remodelling activity in human lung fibroblasts (HFL1): TGFβ-induced α-SMA mRNA (Assay 4); format: cell-based; settings: Homo sapiens, HFL1 cells, TGFβ 10 ng/ml, 24 h, read-out: Inhibition of α-SMA mRNA synthesis (%)
Procedure, shortened: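 Real-time RT-PCR of α-SMA mRNA, GAPDH as reference, measured after 24 h exposure of low-serum-primed HFL1 cells to 10 ng/ml TGFβ with test compounds (3 and 30 μM) in 10% FBS medium. Readout is inhibition of TGFβ-driven α-SMA mRNA overexpression.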

[2] = system: histamine-induced contractions in guinea pig ileum; assay: Inhibition of histamine-induced contractions in guinea pig ileum (Assay 3); settings: Cavia porcellus, histamine 1.7 μM, read-out: Inhibition of histamine-induced contraction (%)
Procedure, shortened: (§1)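 Ileal strips from male Duncan Hartley guinea pigs were held at 1 g tension in 32° C oxygenated Krebs (pH 7.4) with isotonic transducers. After control contractions to 5-HT (2.6 μM) or histamine (1.7 μM), compound at 3 and 30 μM was added, its own effect noted, and agonist re-applied.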

[3] = system: 5-HT-induced contractions in guinea pig ileum; assay: Inhibition of 5-HT-induced contractions in guinea pig ileum (Assay 3); settings: Cavia porcellus, 5-HT 2.6 μM, read-out: Inhibition of 5-HT-induced contraction (%)
Procedure, shortened: as §1

5-lipoxygenase = target: T1, 5-lipoxygenase (Homo sapiens, UniProt P09917); assay: 5-lipoxygenase activity (LTB4) in human peripheral blood mononuclear leukocytes (Assay 6); format: cell-based; settings: human PBMLs, A23187 30 μM, read-out: Inhibition of 5-LO (%)
T1 construct: endogenous in cells; host or cells: human peripheral blood mononuclear leukocytes (PBMLs)
T1 sequence (P09917 1-674): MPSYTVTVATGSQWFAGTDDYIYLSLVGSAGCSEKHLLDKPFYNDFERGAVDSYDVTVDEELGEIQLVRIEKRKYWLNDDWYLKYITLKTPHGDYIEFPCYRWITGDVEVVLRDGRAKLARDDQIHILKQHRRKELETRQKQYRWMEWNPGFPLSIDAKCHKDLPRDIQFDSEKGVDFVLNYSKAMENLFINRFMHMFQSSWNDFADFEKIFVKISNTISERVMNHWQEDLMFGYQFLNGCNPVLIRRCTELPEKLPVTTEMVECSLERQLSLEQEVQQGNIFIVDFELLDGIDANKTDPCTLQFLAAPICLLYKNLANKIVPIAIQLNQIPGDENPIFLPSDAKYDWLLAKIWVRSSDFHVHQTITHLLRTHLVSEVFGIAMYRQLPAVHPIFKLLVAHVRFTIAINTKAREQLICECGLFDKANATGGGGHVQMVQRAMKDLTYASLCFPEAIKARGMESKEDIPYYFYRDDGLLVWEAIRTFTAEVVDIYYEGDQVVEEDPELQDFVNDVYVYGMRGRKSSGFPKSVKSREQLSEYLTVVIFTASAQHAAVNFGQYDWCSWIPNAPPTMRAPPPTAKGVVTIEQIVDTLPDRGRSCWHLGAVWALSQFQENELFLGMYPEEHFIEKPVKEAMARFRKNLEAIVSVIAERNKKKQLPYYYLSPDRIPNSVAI
Procedure, shortened: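 LTB4 in supernatant quantified by EIA after 15 min at 37° C. in HBSS, pH 7.4, where Ficoll-isolated human PBMLs (5×10^6) received ionophore A23187 (30 μM) and test compound (3 and 30 μM) or 0.1% DMSO vehicle.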

WI-38 cells = assay: Viability of WI-38 cells, Alamar Blue (Assay 5); format: cell-based, human
Procedure, shortened: (§2)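 Cell viability was read by Alamar Blue fluorescence (530/590 nm) after 4 h at 37 °C, following an overnight 37 °C incubation of human lung fibroblasts with 1 nM IL-1α and compound (3 or 30 μM) in 10% FBS MEM, pH 7.3. Supernatant PGE2 was measured by radioimmunoassay to derive percent inhibition.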

[4] = system: IL-1α-induced PGE2 release; assay: IL-1α-induced PGE2 release in human diploid lung fibroblasts (WI-38) (Assay 5); format: cell-based; settings: Homo sapiens, WI-38 cells, IL-1α 1 nM, overnight
Procedure, shortened: as §2

TRPV1 receptor = TRPV1 receptor (Rattus norvegicus, UniProt O35433); assay: TRPV1 modulation in DRG neurones: CGRP release in absence and presence of capsaicin (Assay 2); format: cell-based; set-up: The culture used for this experiment contained sensory neurones, Schwann cells and fibroblasts; endogenous in cells; host or cells: primary rat DRG sensory neurone culture (with Schwann cells and fibroblasts); settings: 20 min; for inhibition at 3 µM: 3 μM with capsaicin 1 μM; for inhibition at 3 µM / inhibition at 30 µM: −ve: inhibition, +ve: potentiation of capsaicin response, read-out: Effect of test compounds on capsaicin (1 μM)-induced CGRP release (%); for inhibition at 30 µM: 30 μM with capsaicin 1 μM; for Emax at 3 µM: test compound alone 3 μM; for Emax at 3 µM / Emax at 30 µM: rat DRG sensory neurones, read-out: CGRP release (% of capsaicin (1 μM) response); for Emax at 30 µM: test compound alone 30 μM
Sequence of TRPV1 receptor (O35433 whole entry): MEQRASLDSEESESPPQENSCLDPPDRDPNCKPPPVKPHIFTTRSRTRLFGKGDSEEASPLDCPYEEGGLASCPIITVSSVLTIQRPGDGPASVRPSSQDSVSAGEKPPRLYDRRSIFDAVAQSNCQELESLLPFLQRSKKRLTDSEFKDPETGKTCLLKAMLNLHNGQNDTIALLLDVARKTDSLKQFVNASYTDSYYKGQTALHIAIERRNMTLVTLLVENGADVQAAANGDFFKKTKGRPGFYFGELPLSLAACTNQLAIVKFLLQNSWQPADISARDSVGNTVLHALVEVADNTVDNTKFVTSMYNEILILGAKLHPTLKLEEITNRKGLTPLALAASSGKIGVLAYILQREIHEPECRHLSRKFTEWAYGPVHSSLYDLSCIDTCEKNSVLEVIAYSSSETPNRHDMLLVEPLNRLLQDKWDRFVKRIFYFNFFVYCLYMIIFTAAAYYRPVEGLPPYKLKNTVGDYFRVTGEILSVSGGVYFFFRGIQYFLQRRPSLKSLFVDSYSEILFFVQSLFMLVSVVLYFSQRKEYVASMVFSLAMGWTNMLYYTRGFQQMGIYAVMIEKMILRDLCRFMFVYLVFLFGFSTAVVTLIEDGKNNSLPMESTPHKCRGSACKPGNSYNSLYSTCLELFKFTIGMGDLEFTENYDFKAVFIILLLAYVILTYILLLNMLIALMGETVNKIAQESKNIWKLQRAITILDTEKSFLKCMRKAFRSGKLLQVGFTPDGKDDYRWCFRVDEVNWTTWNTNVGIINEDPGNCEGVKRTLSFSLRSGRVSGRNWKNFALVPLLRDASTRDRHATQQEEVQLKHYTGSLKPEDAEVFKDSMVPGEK

| inhibition at 3 µM (5-lipoxygenase) | inhibition at 30 µM (5-lipoxygenase) | inhibition at 3 µM (TRPV1 receptor) | inhibition at 30 µM (TRPV1 receptor) | Emax at 3 µM (TRPV1 receptor) | Emax at 30 µM (TRPV1 receptor) | Compound | inhibition at 3 µM [1] | inhibition at 30 µM [1] | inhibition at 3 µM [2] | inhibition at 30 µM [2] | inhibition at 3 µM [3] | inhibition at 30 µM [3] | Decrease in cell viability (%) (WI-38 cells; 3 μM) | Decrease in cell viability (%) (WI-38 cells; 30 μM) | inhibition at 3 µM [4] | inhibition at 30 µM [4] |
| --- | --- | --- | --- | --- | --- | --- | --- | --- | --- | --- | --- | --- | --- | --- | --- | --- |
| 77% | 98% | 32% | 26% | 54% | 74% | COc1cc(CCC(=O)CC(=O)c2ccccc2C)ccc1O [Compound 84, 5-(4-Hydroxy-3-methoxyphenyl)-1-o-tolylpentane-1,3-dione] | 6% | 65% | 19% | 66% | 22% | 100% | 3% | 12% | 101% | 102% |
| 58% | 98% | 29% | 4% | 46% | 96% | COc1cc(CCC(=O)CC(=O)c2ccc(F)cc2)ccc1O [Compound 20, 1-(4-Fluorophenyl)-5-(4-hydroxy-3-methoxyphenyl)-pentane-1,3-dione] | -8% | 11% | 0% | 22% | 2% | 74% | 3% | 10% | 87% | 99% |
| 35% | 98% | 51% | -29% | 29% | 107% | COc1cc(CCC(=O)CC(=O)Cc2ccccc2)ccc1O [Compound 28, 6-(4-Hydroxy-3-methoxyphenyl)-1-phenyl-hexane-2,4-dione] | 12% | 47% | 7% | 18% | 6% | 85% | 1% | 6% | 87% | 99% |
| 41% | 94% | 13% | 14% | 19% | 73% | CCC(C(=O)CCc1ccc(O)c(OC)c1)C(=O)c1ccccc1 (stereo not drawn) [Compound 12, 2-Ethyl-5-(4-hydroxy-3-methoxyphenyl)-1-phenyl-pentane-1,3-dione] | 9% | 34% | 3% | 41% | 3% | 47% | 6% | −5% | 69% | 101% |
| 50% | 99% | 49% | -150% | 70% | 122% | COc1cc(CCC(=O)CC(=O)C(c2ccccc2)c2ccccc2)ccc1O [Compound 30, 6-(4-Hydroxy-3-methoxyphenyl)-1,1-diphenyl-hexane-2,4-dione] | 84% | 100% | 8% | 89% | 6% |  | −10% | 29% | 46% | 99% |
| 15% | 73% | -58% | -24% | 36% | 63% | COc1cc(CCC(=O)C(C)C(=O)C(C)(C)C)ccc1O (stereo not drawn) [Compound 4, 1-(4-Hydroxy-3-methoxyphenyl)-4,6,6-trimethyl-heptane-3,5-dione] | -3% | 17% | 7% | 14% | 0% | 10% | −3% | 10% | 49% | 96% |
| 61% | 97% | 44% | -24% | 68% | 118% | COc1cc(CCC(=O)CC(=O)c2ccc(C)cc2)ccc1O [Compound 80, 5-(4-Hydroxy-3-methoxyphenyl)-1-p-tolylpentane-1,3-dione] | 4% | 29% | 2% | 62% | 14% | 68% | 2% | 1% | 72% | 102% |
